Source: patent publication US9944613B2, “Fumagillol spirocyclic compounds and fused bicyclic compounds and methods of making and using same” (Zafgen, Inc., priority 2015, dated 2018)
Read-outs that look alike come from different tables or passages of the source.

Experiments:
recombinant human MetAP2 = biological target: T1, recombinant human MetAP2 (Homo sapiens, UniProt P50579); assay: Inhibition of recombinant human MetAP2 activity (MAS peptide / amino acid oxidase / Amplex assay); assay type: biochemical
T1 construct: Flag; made in house
T1 sequence (P50579 whole entry): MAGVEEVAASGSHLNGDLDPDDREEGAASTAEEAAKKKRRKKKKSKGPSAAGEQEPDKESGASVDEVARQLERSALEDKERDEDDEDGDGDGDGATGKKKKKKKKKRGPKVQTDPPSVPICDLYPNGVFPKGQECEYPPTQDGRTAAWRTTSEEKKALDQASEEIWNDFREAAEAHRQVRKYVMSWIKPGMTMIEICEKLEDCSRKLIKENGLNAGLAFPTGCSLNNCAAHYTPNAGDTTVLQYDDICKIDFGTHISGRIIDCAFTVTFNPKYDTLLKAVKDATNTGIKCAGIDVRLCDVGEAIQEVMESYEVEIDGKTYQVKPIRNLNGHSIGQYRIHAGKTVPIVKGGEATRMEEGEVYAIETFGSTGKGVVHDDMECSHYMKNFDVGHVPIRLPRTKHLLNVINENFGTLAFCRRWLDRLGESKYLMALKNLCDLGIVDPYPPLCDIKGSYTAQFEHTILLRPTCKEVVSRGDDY
Experimental: Compounds are tested for their capacity to inhibit recombinant human MetAP2 activity using the following assay.
Flag tagged Human recombinant MetAP2 expressed and isolated for use as the enzyme source. 10 mM stock solutions of compounds were prepared in 100% DMSO and further diluted in 100% DMSO required concentration to 1 mM stocks. The stock compound solutions and DMSO vehicle controls were diluted to target final compound concentrations using assay buffer to a final concentration of 50 mM HEPES containing 100 mM NaCl, pH adjusted to 7.5. The MAS peptide was formulated to a 7.5 mM stock in distilled water and prior to use further diluted 1:4. […] 40 μl of enzyme was mixed with 100 μl of MnCl2 then further diluted in assay buffer to a final concentration of 16 μg/ml. To test for compound effect on MetAP2 enzyme activity, 5 μl of test compound, 10 μl of MAS substrate/amino acid oxidase mixture, 10 μl of MetAP2 was added to test wells in a 384 well black plate with blank wells containing no enzyme, replaced with 10 μl of assay buffer. All compounds were tested in duplicate on two occasions on the same day.
The plate was sealed with a TopSeal A cover and mixed briefly on an orbital mixer at 900 rpm. The plate was incubated for a further 25 minutes at 25° C. A 5× stock of Amplex buffer was prepared (0.25M sodium phosphate, pH 7.4) and stored at 4° C. When preparing for use the stock was diluted with distilled water. […] Horse radish peroxidase was diluted in […] of Amplex buffer, 100 μl of this was combined with 50 μl of Amplex Ultrared in […] of 1× Amplex buffer to generate sufficient detection reagent for a 384 well plate. 25 μl detection reagent was added to each well of the test plate, which was re-sealed and mixed briefly on an orbital shaker. The plate was transferred to an Envision Multi-label reader and RFU measured corresponding to excitation 531 nm and emission 595 nm. At the end of the MetAP2 incubation 25 μl Amplex/HRP mixture per well was added and the plate read plate on a plate reader.

[1] = system: Diet Induced Obese (DIO) C57BL/6 mice; assay: 10 day DIO mouse model, weight loss vs. vehicle; assay type: in vivo; conditions: 240 h, 0.3 mpk sc once a day for 10 days
Source text: The objective of this study design was to investigate the efficacy of disclosed compounds in a 10 day DIO mouse model. Effects on body weight, food intake, hematology and blood chemistry were the primary readouts of this study design. Male, Diet Induced Obese (DIO) C57BL/6 mice, 19-21 weeks of age (13-15 weeks on high fat diet) were ordered from a certified vendor and upon receipt were housed on irradiated corncob bedding in micro-isolator cages on a 12-hour light-dark cycle (0700-1900) at 68-74° F. and 30-70% humidity. Mice were fed Research Diets D12492 (60% Kcal fat, 20% Kcal carbohydrate and 20% protein) and provided water ad libitum. DIO mice were received and housed in the facility for approximately two weeks prior to the start of test article administration. On Day −4 or −3, mice were randomized into study groups based on body weight and body weights were continued to be recorded daily for the duration of the study. Daily food intake was assessed starting on Study Day −2 by weighing of the food with hopper together to avoid loss of food in transfer.
(§1) Compounds were formulated into a 100% DMSO stock (at 9 mg/mL) prior to the start, and further diluted into the target working concentration using the vehicle of 10% DMSO in water. Prior to test article administration, starting on Day −3 a dosing acclimation occured with all animals receiving a subcutaneous injection of vehicle (10% DMSO) only for 3 days. Starting on Day 1, test compounds or vehicle were administered based on individual body weight, subcutaneously, once a day for 10 days. All mice were sacrificed on Day 11, 24 hours following the final dosing on Day 10. After sacrifice, whole blood was collected and analyzed for hematology and blood chemistry parameters.
(§2) Compounds were tested for weight loss vs. vehicle at 0.3 and 1.0 mpk sc (mg per kg animal weight delivered subcutaneously), and the results are shown in Table 2 below.

[2] = system: rat DIO model (Sprague Dawley rats on high fat diet); assay: 11 day rat DIO model, weight loss vs. vehicle; assay type: in vivo; conditions: for inhibition in vivo at 0.3 mg/kg: Rattus norvegicus, 264 h, 0.3 mpk sc once a day for 11 days
Source text: The objective of this study design is to investigate the efficacy of disclosed compounds in an 11 day rat DIO model used to screen compounds for pharmacologic efficacy on endpoints related to obesity and metabolism. Effects on body weight, food intake, hematology and blood chemistries were the primary readouts of this study design. Male Sprague Dawley rats, approximately 8 weeks of age, were ordered from a certified vendor and housed on irradiated corncob bedding in micro-isolator cages, on a 12-hour light-dark cycle (0700-1900) at 68-74° F. and 30-70% humidity. Rats were fed Research Diets D12451 (45% High Fat) and provided water ad libitum. Rats were received and housed in the facility for at least two or three weeks prior to start of test article administration. On Day −4 or −3, rats were randomized into study groups based on body weight and body weights were continued to be recorded daily for the duration of the study. Daily food intake was assessed starting on Study Day −2 by weighing the hopper including the food to avoid loss of food in transfer.
as §1, with “for 11” for “for 10”, “All animals” for “All mice”, “11, approximately 2” for “11, 24”, “Day 11.” for “Day 10.”
as §2

[3] = Flag tagged human recombinant MetAP2, 25 minutes at 25° C., read-out: MetAP2 IC50

Structure (SMILES) | IC50 (recombinant human MetAP2; [3]) [nM] | inhibition in vivo at 0.3 mg/kg [1] [%] | Rat @ 1.0 mpk sc (%) ([2]; 1.0 mpk sc once a day for 11 days) | inhibition in vivo at 0.3 mg/kg [2] [%] | IC50 (recombinant human MetAP2) [nM]
CO[C@@H]1[C@H](OC(=O)N2CCC3(CCOCC3)CC2)CC[C@]2(CO2)[C@H]1[C@@]1(C)O[C@@H]1CC=C(C)C [Example 1, (3R,4S,5S,6R)-5-methoxy-4-((2R,3R)-2-methyl-3-(3-methylbut-2-enyl)oxiran-2-yl)-1-oxaspiro[2.5]octan-6-yl 3-oxa-9-azaspiro[5.5]undecane-9-carboxylate] | 50 to 500 | 17 | 16.3 | 10.3 | 
CO[C@@H]1[C@H](OC(=O)N2C[C@H]3COC[C@H]3C2)CC[C@]2(CO2)[C@H]1[C@@]1(C)O[C@@H]1CC=C(C)C [Example 13, (3aR,6aS)-((3R,4S,5S,6R)-5-methoxy-4-((2R,3R)-2-methyl-3-(3-methylbut-2-enyl)oxiran-2-yl)-1-oxaspiro[2.5]octan-6-yl) tetrahydro-1H-furo[3,4-c]pyrrole-5(3H)-carboxylate] |  | 16.9 |  | 3.1 | 
CO[C@@H]1[C@H](OC(=O)N2CCC3(CCN(CC(F)F)CC3)CC2)CC[C@]2(CO2)[C@H]1[C@@]1(C)O[C@@H]1CC=C(C)C [Example 14, (3R,4S,5S,6R)-5-methoxy-4-((2R,3R)-2-methyl-3-(3-methylbut-2-enyl)oxiran-2-yl)-1-oxaspiro[2.5]octan-6-yl 9-(2,2-difluoroethyl)-3,9-diazaspiro[5.5]undecane-3-carboxylate] |  | 23.3 |  | 11.6 | 
CO[C@@H]1[C@H](OC(=O)N2CC3(CNC(=O)C3)C2)CC[C@]2(CO2)[C@H]1[C@@]1(C)O[C@@H]1CC=C(C)C [Example 25, (3R,4S,5S,6R)-5-methoxy-4-((2R,3R)-2-methyl-3-(3-methylbut-2-enyl)oxiran-2-yl)-1-oxaspiro[2.5]octan-6-yl 7-oxo-2,6-diazaspiro[3.4]octane-2-carboxylate] |  | 2 |  |  | < 50
CO[C@@H]1[C@H](OC(=O)N2CCC3(CCN(C)CC3)C2)CC[C@]2(CO2)[C@H]1[C@@]1(C)O[C@@H]1CC=C(C)C [Example 26, (3R,4S,5S,6R)-5-methoxy-4-((2R,3R)-2-methyl-3-(3-methylbut-2-enyl)oxiran-2-yl)-1-oxaspiro[2.5]octan-6-yl 8-methyl-2,8-diazaspiro[4.5]decane-2-carboxylate] | < 50 | 5.6 |  |  | 
CNC(=O)[C@H]1[C@@H]2CN(C(=O)O[C@@H]3CC[C@]4(CO4)[C@@H]([C@@]4(C)O[C@@H]4CC=C(C)C)[C@@H]3OC)C[C@@H]21 [Example 32, (1R,5S,6R)-(3R,4S,5S,6R)-5-methoxy-4-((2R,3R)-2-methyl-3-(3-methylbut-2-en-1-yl)oxiran-2-yl)-1-oxaspiro[2.5]octan-6-yl 6-(methylcarbamoyl)-3-azabicyclo[3.1.0]hexane-3-carboxylate] | 50 to 500 | 4 |  |  | 
CO[C@@H]1[C@H](OC(=O)N2C[C@@H]3[C@H](C2)[C@H]3C(=O)N(C)C)CC[C@]2(CO2)[C@H]1[C@@]1(C)O[C@@H]1CC=C(C)C [Example 33, (1R,5S,6R)-(3R,4S,5S,6R)-5-methoxy-4-((2R,3R)-2-methyl-3-(3-methylbut-2-en-1-yl)oxiran-2-yl)-1-oxaspiro[2.5]octan-6-yl 6-(dimethylcarbamoyl)-3-azabicyclo[3.1.0]hexane-3-carboxylate] | 50 to 500 | 13.8 |  |  | 
CO[C@@H]1[C@H](OC(=O)N2C[C@@H]3[C@H](C2)[C@H]3C(N)=O)CC[C@]2(CO2)[C@H]1[C@@]1(C)O[C@@H]1CC=C(C)C [Example 34, (1R,5S,6R)-(3R,4S,5S,6R)-5-methoxy-4-((2R,3R)-2-methyl-3-(3-methylbut-2-en-1-yl)oxiran-2-yl)-1-oxaspiro[2.5]octan-6-yl 6-carbamoyl-3-azabicyclo[3.1.0]hexane-3-carboxylate] | < 50 | 3 |  |  | 
